Experiments:
liver dysfunction = details: in vivo; cited from earlier work
[1] = system: skin sebum (skin surface lipids); assay: Pilot clinical study: sebum reduction measured with Sebumeter SM810PC; assay type: in vivo, humans; details: for sebum reduction: one side of face, after 28 days
Description: (§1) In an initial pilot study in humans, 3 topical formulations were evaluated for effectiveness in reduction of sebum or treatment of acne.
(§2) The active substance in each of these formulations was: • Formulation 1—natural isolutrol (sodium 24R—scymnol sulphate). • Formulation 2—synthetic (24R)—scymnol. • Formulation 3—synthetic racemic (24RS)—scymnol.
(§3) In each formulation, the active substance was incorporated at 0.015% w/w into an oil-free topical lotion. In the pilot study, each test formulation was applied to one side of the face of a test subject, twice daily, for 28 days in the case of Formulations 1 and 2, and for 42 days in the case of Formulation 3. For each test formulation, 10 healthy female test subjects participated in the pilot study.
For the evaluation of sebum reduction, a Sebumeter SM810PC (Courage+Khazaka electronic GmbH) was used to obtain measurement of skin sebum (skin surface lipids) on days 0, 3, 7, 14, 21, 28, 35 and 42. To accomplish this, a special purpose film of the cartridge measuring head was applied for 30 seconds to the relevant skin area. The cartridge was inserted into the Sebumeter SM810 PC for electronic determination of film transparency variations. The LC-display of the instrument presents the result in terms of μg/cm^2. Duplicated measurements were obtained on the same site at each visit, and the results were averaged.

seborrhoea = details: particularly when used topically; cited from earlier work
[2] = system: total acne lesion (pustules, papules and comedones) counts; assay: Pilot clinical study: anti-acne treatment, total acne lesion counts; assay type: in vivo, humans; details: 0.015% w/w in oil-free topical lotion, twice daily, over the 42 day test period
Description: as §1, §2, §3
For evaluation of anti-acne treatment, reduction in total acne lesion (pustules, papules and comedones) counts was measured.

[3] = 0.015% w/w in oil-free topical lotion, twice daily

For `C[C@H](CC[C@@H](O)C(CO)CO)[C@H]1CC[C@H]2[C@@H]3[C@H](O)C[C@@H]4C[C@H](O)CC[C@]4(C)[C@H]3C[C@H](O)[C@]12C` [(24R)-scymnol, 24R-(+)-5β-cholestane-3α,7α,12α,24,26,27-hexol], the “treatment of liver dysfunction” value (liver dysfunction) is given as “activity in the treatment of liver dysfunction” and the sebum reduction [1, 3] is given as “at least as effective in sebum reduction as the active substance of Formulation 1”.
For `C[C@H](CC[C@@H](O)C(CO)CO)[C@H]1CC[C@H]2[C@@H]3[C@H](O)C[C@@H]4C[C@H](O)CC[C@]4(C)[C@H]3C[C@H](O)[C@]12C` [(24S)-scymnol], the “effect of presence of the non-natural enantiomer in the racemate on the sebum study” value ([1]; as component of racemic (24RS)-scymnol of Formulation 3) was “no adverse effect in the sebum study”.
For `CC(CC[C@@H](O)C(CO)COS(=O)(=O)[O-])C1CCC2C3C(O)C[C@@H]4CC(O)CCC4(C)C3CC(O)C12C.[Na+]` (stereo partly drawn) [sodium 24R-scymnol sulphate, 24(+)-3α, 7α,12α,24,26-pentahydroxy-coprostane-27-sodium sulphate ester], the treatment of seborrhoea (seborrhoea) is listed as “effective in the treatment of seborrhoea”.
For “racemic (24RS,25RS) sodium scymnol sulphate [racemic (24RS)-scymnol]”, the “reduction of total acne lesion counts” value [2] was “effective in reduction of total acne lesion counts”, the sebum reduction [1, 3] was “at least as effective in sebum reduction as the active substances of Formulations 1 and 2” and the “sebum reduction when test period extended” value ([1]; 0.015% w/w in oil-free topical lotion, twice daily, test period extended to 42 days) was “sebum reduction continued”.

Source: patent publication US20140364405A1, “TREATMENT OF SEBORRHOEA” (McFarlane Marketing (Aust.)Pty. Ltd., priority 2011, published 2014)
